By AC50 is commonly meant the midpoint of the concentration-response curve, whichever way the signal moves. As usually defined, the EC50 is the midpoint of the concentration-response curve.

Calls of active or inactive are those of the source. Some results are limits rather than exact numbers.

Data set [1] deals with T1, Cytochrome P450 1A2 (Homo sapiens, UniProt P05177).
T1 sequence (P05177 whole entry): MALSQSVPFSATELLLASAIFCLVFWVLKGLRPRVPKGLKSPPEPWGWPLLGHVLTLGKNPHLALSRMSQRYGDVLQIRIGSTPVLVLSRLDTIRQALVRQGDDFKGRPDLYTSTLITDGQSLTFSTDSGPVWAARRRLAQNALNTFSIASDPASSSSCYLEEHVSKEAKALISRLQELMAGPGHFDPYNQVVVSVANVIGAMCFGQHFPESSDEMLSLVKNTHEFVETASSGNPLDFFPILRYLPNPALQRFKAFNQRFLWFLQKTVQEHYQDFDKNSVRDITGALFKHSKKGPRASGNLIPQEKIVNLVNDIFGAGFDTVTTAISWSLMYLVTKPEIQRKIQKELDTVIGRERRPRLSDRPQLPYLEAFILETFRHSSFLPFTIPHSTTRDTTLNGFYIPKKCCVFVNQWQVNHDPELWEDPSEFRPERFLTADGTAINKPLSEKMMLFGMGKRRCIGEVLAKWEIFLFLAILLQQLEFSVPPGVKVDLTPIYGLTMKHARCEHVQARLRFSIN

A short description of data set [2]: Luminescence Cell-Based Dose Confirmation HTS to Identify Inhibitors of Platelet Dense Granule Release. [Related pubchem assays: 1663 (Primary HTS), 1678 (Summary of Project)]. It is filed as functional.
Data set [3] deals with Luciferin 4-monooxygenase (Photinus pyralis, UniProt P08659). The data set can be described thus: inhibition of purified Photinus pyralis luciferase – biochemical, luminescence, dose response (AID 1891).
Sequence of Luciferin 4-monooxygenase (P08659 whole entry): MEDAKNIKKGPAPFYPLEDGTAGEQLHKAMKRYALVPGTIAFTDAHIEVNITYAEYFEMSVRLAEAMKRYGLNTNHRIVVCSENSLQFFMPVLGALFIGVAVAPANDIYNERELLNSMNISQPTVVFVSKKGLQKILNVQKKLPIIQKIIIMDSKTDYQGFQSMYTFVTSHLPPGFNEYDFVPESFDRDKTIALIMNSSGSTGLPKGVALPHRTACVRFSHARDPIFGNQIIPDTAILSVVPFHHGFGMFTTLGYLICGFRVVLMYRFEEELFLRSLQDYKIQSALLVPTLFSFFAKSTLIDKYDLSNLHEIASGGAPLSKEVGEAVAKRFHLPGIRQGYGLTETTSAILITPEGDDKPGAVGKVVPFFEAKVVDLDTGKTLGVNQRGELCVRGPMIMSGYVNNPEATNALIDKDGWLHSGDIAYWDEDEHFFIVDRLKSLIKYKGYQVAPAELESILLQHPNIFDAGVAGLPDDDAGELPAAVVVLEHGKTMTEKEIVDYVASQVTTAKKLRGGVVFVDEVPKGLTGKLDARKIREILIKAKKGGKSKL
The target in data set [4] is T2, Protein skinhead-1 (Caenorhabditis elegans, UniProt P34707).
T2 sequence (P34707 whole entry): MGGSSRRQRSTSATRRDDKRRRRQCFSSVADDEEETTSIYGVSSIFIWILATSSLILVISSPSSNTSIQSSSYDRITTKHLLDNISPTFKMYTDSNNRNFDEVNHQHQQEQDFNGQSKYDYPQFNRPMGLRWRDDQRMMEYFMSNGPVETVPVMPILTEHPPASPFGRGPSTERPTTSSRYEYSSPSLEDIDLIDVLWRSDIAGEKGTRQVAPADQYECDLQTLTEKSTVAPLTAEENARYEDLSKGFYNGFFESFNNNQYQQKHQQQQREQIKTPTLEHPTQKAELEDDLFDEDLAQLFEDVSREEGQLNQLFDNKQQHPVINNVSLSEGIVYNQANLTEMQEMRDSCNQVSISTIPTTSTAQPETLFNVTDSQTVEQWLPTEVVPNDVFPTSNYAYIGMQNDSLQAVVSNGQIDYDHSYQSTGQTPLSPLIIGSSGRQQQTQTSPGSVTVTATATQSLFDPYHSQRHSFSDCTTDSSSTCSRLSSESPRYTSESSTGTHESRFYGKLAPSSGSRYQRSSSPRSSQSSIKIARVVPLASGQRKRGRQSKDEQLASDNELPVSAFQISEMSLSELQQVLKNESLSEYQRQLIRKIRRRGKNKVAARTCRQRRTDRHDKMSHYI
Format: functional.

Data set [5] is described as follows: viability of PTEN-deleted HCT116 cells – cell-based, HCT116 PTEN knockout, dose response (AID 1047).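 Further: HCT116 colon tumor cells with PTEN knocked out; cells exposed to compound for 60 hours before readout; potency for loss of cell viability measured by luminescence.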 It is filed as functional.
Data set [6] can be described thus: viability of HCT116 lacking mutant beta-catenin – cell-based, human colon tumor, dose response (AID 1045).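 Further: HCT116 colon tumor cells with beta catenin knocked out; cells exposed to compound for 60 hours.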 Format: functional.
Data set [7] addresses T3, Polyadenylate-binding protein 1 (Homo sapiens, UniProt P11940). The data set can be described thus: MLLE domain peptide-binding blockers, IC50 – biochemical, fluorescence polarization, FITC-PAM2 peptide, dose response (AID 602259). Format: functional. As to conditions: read-out: IC50_Mean.
The target in data set [8] is T3, Polyadenylate-binding protein 1. In words: MLLE binding blockers, Cy5 peptide tracer – biochemical, fluorescence polarization, Cy5-PAM2 peptide, secondary, miRNA deadenylation inhibitor project, dose response (AID 602260). Format: functional. The settings on record: read-out: IC50_Mean. (Polarisation of emitted light reports the rotation of a fluorescent probe.)

The nature of data set [9]: Luminescence Cell-Based Dose Confirmation HTS to Identify Activators of 5'UTR Stem-Loop Driven Alpha-Synuclein mRNA Translation in H4 Neuroglioblastoma Cells. [Related pubchem assays: 1829 (Project Summary), 1814 (Primary HTS)]. Format: functional.
Data set [10] in a line: Luminescence Cell-Based Dose Response HTS to Identify Activators of Luciferase Translation or Activity in H4 […] Cells. [Related pubchem assays: 1829 (Project Summary), 1814 (Primary HTS)]. It is filed as functional.
Data set [11] concerns H4. The data set can be described thus: Luminescence Cell-Based Dose Response HTS to Identify Activators of 5'UTR Stem-Loop Driven Prion Protein mRNA Translation in H4 Neuroglioblastoma Cells. [Related pubchem assays: 1829 (Project Summary), 1814 (Primary HTS)]. Format: functional. As to conditions: Homo sapiens.
Data set [12] in a line: HIV-1 AD8 envelope cell-cell fusion blockers – cherry-pick, dose response (AID 652062).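 Further: luciferase signal from cell-cell fusion driven by HIV-1 clade B AD8 Env; potency is for inhibitors of fusion seen as a drop in luminescence.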 It is filed as functional, cell-based.
The target of data set [13] is Cytochrome P450 2C19 (Homo sapiens, UniProt P33261). In words: Cytochrome panel assay with activity outcomes. Panel member name: p450-cyp2c19 Compounds with AC50 equal or less than 10 uM are considered active. Format: functional.
Sequence of Cytochrome P450 2C19 (P33261 whole entry): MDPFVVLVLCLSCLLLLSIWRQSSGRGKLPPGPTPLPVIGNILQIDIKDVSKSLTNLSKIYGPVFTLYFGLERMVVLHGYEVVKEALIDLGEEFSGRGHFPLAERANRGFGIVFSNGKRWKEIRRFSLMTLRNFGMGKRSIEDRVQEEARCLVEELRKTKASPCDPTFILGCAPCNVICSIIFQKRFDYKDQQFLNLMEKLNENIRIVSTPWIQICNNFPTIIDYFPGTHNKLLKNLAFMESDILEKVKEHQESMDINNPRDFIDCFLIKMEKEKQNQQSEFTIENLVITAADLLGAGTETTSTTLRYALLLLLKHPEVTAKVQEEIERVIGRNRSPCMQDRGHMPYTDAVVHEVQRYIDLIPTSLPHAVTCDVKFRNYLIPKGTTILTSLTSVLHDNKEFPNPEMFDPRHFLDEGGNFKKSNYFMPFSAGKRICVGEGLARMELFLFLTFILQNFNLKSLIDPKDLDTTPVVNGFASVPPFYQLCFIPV
A short description of data set [14]: cells. Format: functional.
Data set [15] concerns the target T4, Heat shock factor protein 1 (Mus musculus, UniProt P38532).
T4 sequence (P38532 whole entry): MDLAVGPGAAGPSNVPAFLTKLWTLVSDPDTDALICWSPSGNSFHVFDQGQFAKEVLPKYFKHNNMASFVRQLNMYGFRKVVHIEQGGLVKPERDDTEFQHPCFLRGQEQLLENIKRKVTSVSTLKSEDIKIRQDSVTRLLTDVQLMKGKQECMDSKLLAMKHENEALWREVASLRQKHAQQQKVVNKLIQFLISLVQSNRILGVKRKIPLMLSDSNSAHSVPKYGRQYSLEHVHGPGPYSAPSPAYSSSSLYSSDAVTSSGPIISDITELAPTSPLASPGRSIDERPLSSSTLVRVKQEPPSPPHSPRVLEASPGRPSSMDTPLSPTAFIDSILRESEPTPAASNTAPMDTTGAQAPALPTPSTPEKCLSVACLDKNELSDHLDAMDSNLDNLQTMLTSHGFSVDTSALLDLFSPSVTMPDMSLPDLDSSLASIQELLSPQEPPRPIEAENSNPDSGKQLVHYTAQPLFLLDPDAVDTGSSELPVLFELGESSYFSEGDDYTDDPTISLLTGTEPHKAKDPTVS
The data set can be described thus: enhancement of HSF1-driven luciferase signal – cell-based, NIH3T3, luminescence, dose retest, confirmation (AID 435004).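 Further: stress induced by proteasome inhibitor MG132 added 30 min after compound; luciferase reporter driven by HSF1 response element in NIH3T3 cells; actives raise luminescence as potentiators of the MG132 stress response.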 Format: functional.

For data set [16], the target named is Cytochrome P450 3A4 (Homo sapiens, UniProt P08684).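 Further: CYP3A4 tested as one member of a cytochrome P450 panel screen.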
Sequence of Cytochrome P450 3A4 (P08684 whole entry): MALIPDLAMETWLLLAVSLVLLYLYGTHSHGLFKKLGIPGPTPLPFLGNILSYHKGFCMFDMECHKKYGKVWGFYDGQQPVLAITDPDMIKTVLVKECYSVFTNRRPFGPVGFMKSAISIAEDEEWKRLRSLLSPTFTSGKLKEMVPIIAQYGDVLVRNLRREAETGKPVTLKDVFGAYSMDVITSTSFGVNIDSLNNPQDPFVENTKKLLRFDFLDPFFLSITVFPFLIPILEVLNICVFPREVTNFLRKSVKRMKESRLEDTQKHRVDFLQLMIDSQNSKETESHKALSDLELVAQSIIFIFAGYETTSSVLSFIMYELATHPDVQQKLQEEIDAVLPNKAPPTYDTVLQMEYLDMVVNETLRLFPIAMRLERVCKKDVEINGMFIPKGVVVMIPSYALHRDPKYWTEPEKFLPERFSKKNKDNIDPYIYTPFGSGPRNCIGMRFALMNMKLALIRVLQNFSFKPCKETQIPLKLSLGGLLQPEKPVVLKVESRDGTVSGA
In data set [17] the target is Cytochrome P450 2D6 (Homo sapiens, UniProt P10635).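 Further: CYP2D6 member of a cytochrome P450 panel assay.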
Sequence of Cytochrome P450 2D6 (P10635 whole entry): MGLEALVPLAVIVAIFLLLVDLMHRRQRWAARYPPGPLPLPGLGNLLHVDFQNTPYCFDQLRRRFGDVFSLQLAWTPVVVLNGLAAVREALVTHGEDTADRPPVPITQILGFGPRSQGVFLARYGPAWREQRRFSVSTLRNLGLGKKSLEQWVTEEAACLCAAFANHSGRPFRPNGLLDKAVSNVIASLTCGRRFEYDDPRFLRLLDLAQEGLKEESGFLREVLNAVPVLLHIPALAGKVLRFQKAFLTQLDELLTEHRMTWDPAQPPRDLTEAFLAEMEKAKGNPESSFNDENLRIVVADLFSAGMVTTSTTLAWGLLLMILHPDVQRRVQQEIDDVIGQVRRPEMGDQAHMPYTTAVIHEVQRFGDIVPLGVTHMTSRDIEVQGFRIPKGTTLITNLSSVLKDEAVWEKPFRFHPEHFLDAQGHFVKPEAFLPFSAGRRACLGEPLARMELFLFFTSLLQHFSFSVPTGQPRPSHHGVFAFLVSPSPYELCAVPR
Data set [18] has as its target Cytochrome P450 2C9 (Homo sapiens, UniProt P11712).
Data set [19] is described as follows: luciferase reporter signal suppression in cells – H4 neuroglioma cells, luminescence, dose response (AID 1990). Format: functional, cell-based. On the technique in general: A reporter such as luciferase makes a cellular process visible.
Data set [20] is described as follows: Luminescence Cell-Based Dose Response HTS to Identify Inhibitors of 5'UTR Stem-Loop Driven Prion Protein mRNA Translation in H4 Neuroglioblastoma Cells. [Related pubchem assays: 1827 (Project Summary), 1813 (Primary HTS)]. Format: functional.
Data set [21] in a line: alpha-synuclein stem-loop luciferase translation blockers – H4 neuroglioma cells, luminescence, confirmation (AID 1988). Format: functional, cell-based.

Sequence of Cytochrome P450 2C9 (P11712 whole entry): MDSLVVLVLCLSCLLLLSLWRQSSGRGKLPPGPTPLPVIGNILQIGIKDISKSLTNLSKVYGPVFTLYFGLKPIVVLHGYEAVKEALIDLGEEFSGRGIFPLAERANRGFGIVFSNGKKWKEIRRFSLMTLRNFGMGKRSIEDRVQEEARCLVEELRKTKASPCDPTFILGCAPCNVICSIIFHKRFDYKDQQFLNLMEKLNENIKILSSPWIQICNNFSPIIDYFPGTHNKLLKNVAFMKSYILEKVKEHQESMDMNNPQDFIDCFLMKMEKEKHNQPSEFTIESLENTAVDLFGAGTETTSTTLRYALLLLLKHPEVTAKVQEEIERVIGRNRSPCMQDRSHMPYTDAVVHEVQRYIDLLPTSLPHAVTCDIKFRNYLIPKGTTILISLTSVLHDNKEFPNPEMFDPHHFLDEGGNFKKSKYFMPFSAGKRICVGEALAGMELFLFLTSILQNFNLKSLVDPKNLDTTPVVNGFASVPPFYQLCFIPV
T3 sequence (P11940 whole entry, the tested form may be a part): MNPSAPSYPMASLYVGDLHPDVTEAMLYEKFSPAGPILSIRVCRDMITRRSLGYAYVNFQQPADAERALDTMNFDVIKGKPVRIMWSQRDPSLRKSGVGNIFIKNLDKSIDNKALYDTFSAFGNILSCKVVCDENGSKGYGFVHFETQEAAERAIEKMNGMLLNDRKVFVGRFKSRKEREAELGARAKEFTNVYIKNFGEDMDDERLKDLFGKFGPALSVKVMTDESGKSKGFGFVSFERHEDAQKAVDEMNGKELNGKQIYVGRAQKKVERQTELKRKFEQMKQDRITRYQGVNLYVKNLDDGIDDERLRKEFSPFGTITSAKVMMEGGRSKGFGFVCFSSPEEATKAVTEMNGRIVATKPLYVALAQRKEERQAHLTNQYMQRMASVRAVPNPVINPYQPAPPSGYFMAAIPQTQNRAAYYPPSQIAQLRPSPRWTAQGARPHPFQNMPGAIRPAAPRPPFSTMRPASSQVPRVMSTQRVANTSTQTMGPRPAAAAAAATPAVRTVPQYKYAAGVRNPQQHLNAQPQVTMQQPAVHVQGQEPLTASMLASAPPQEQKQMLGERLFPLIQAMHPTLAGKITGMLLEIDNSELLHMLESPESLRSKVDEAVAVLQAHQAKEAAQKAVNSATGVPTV

For `O=C(CCNC(=O)Cn1cnc2ccccc2c1=O)NCC1COc2ccccc2O1` (centres undefined), the AC50 in [1] was 0.01 µM (inconclusive).

For the molecule `CCOC(=O)C1=C(C)N(c2ccc(C)cc2)C(=O)/C1=C\c1ccc(O)c(OC)c1`, the EC50 in [2] and in data set [3] was > 112 µM (not active) each time.

For the molecule `CCCSc1cc(NCCOC(C)=O)c([N+](=O)[O-])c2nonc12`, the EC50 in data set [2] and in [3] was > 112 µM (not active) throughout.

For `CSc1cccc(NC(=O)c2cc(S(=O)(=O)N3CCCC3)cn2C)c1`, the EC50 in [2] and in [3] was > 112 µM (not active) each time.

As for `FC(F)(F)c1cc(-c2ccccc2)nc(NC2CCCC2)n1`, in data set [4], the IC50 is > 100 µM (inactive).

Turning to `O=C(Cc1cccc2ccccc12)NC(NC(=S)Nc1ccccc1Cl)C(Cl)(Cl)Cl` (centres undefined), the figures for the EC50 in data set [5] and in data set [6] were 15.2 µM (active) and 16.7 µM (active), respectively. In addition, the IC50 in data set [7] and in [8] was > 66 µM (inactive) throughout.

In the case of `CCc1ccc2nc(O)c(CN(Cc3nnnn3C3CCCC3)C3CCCCC3)cc2c1`, the 50% effective concentration (EC50) in data set [5] is 18.8 µM (active); in data set [9], > 120 µM (not active); in [6] it was 19.7 µM (active); in data set [10] it was > 120 µM (not active); in data set [11], > 120 µM (not active).

As for `CCOC(=O)c1ccc(NC(=O)c2cccc(S(=O)(=O)N3CCOCC3)c2)cc1`, the EC50 is 30.4 µM (active) in data set [5] and 22 µM (active) in [6].

For the molecule `O=C1[C@@H]2Cc3c([nH]c4ccccc34)[C@@H](c3ccccc3)N2C(=O)[C@@H]2Cc3c([nH]c4ccccc34)[C@@H](c3ccccc3)N12`, the results for the EC50 in data set [5] and in data set [6] were 9.58 µM (active) and 9.96 µM (active), respectively.

In the case of `Cc1ccc(-c2nc(=S)c3c(n2CCN2CCOCC2)CC(C)(C)OC3)cc1`, the IC50 in data set [4] is > 100 µM (inactive).

As to `CC(=O)NC(CCS(C)(=O)=O)C(=O)Nc1cc(C)on1` (centres undefined), the EC50 in data set [2] and in data set [3] was > 112 µM (not active) throughout.

For `COC(=O)c1ccc(NC(=O)c2ccc(CN3CCOCC3)cc2)cc1`, the AC50 in data set [12] is 43.4 µM (active).

For the molecule `COc1ccc2[nH]cc(CCNc3ncnc4ccc(-c5ccccc5CN(C)C)cc34)c2c1`, in data set [1], the AC50 was 31.6 µM (inconclusive).

Take `COC(=O)[C@H](C)[C@H]1C[C@]1(C)[C@H](NC(=O)OCc1ccccc1)c1ccccc1`: the AC50 in data set [1] was 15.8 µM (inconclusive).

Turning to `O=C(CN1CCN(S(=O)(=O)c2ccc(Br)cc2)CC1)Nc1ccc2c(c1)OCO2`, in [4], the IC50 is > 100 µM (inactive).

Turning to `O=C(Nc1ccc(Cl)cc1)c1cnc(-c2ccccc2)nc1-c1ccccc1`, the EC50 in [5] is 7.19 µM (active); in data set [6], 6.45 µM (active). Further, in [13] (read-out: AC50), the AC50 is 1 µM (inconclusive).

`SC1=Nc2ccc(Cl)cc2C(c2ccccc2)=NC1`: in data set [14], the IC50 is > 50 µM (active). Further, in data set [15], the EC50 was > 260 µM (inactive).

`COC(=O)[C@@]1(Cc2ccc(F)cc2)[C@H]2c3cc(C(=O)N(C)C)n(CCc4c[nH]c5ccc(OC)cc45)c3C[C@H]2CN1C(=O)c1ccccc1`: the AC50 in data set [1] was 12.6 µM (inconclusive); in [13] (read-out: AC50), 39.8 µM (inconclusive).

With `c1ccc(-c2nc3c4ccccc4ccn3c2CN2CCCCC2)cc1`, the EC50 is > 112 µM (not active) in data set [2] and 14.8 µM (active) in data set [3].

For `CCC(c1nnnn1CC1CCCO1)N(CCN1CCOCC1)Cc1cc2cc(C)ccc2nc1O` (centres undefined), the AC50 in [1] is 25.1 µM (inconclusive).

As for `COc1cccc(Cn2c(=O)c(-c3cn(C)c4ccccc34)nc3cnc(N4CCNCC4)nc32)c1`, the AC50 in [16] was 15.8 µM (inconclusive); in data set [17] it was 39.8 µM (inconclusive); in data set [1] it was 15.8 µM (inconclusive).

As to `CN(C)C(=O)c1ccc(-c2nc(NCc3cccnc3)c3ccccc3n2)cc1`, the figures for the AC50 in [17] and in data set [1] were 39.8 µM (inconclusive) and 10 µM (inconclusive), respectively.

For the molecule `O=C(NCC1CCCO1)c1ccc(NC(=O)c2cccc(Cl)c2)cc1` (centres undefined), the EC50 in data set [2] and in [3] was > 112 µM (not active) throughout.

Turning to `Cc1c(C(=O)N2CCCCCC2)nnn1-c1nonc1N`, the results for the AC50 in data set [17], in data set [1] and in [18] were 17.8 µM (inconclusive), 15.8 µM (inconclusive) and 14.1 µM (inconclusive), respectively.

With `CC#CCCCC(=O)Nc1ccc(C(=O)O)cc1`, the figures for the AC50 in [1], in [18] and in data set [13] were 28.2 µM (inconclusive), 39.8 µM (inconclusive) and “inconclusive”, respectively.

On to `O=C(Nc1ccccc1F)C1CCCC1`, for which the IC50 in data set [4] was > 100 µM (inactive).

As to `C[C@@H]1CN([C@@H](C)CO)C(=O)c2cc(C3=CCCC3)cnc2O[C@@H]1CN(C)Cc1ccc(C(=O)O)cc1`, in data set [12], the AC50 is 10.9 µM (active).

As for `OCC/N=C1\CCCc2c1[nH]c1ccc(Br)cc21`, the AC50 in [17] is 1 µM (inconclusive); in [1], 0.251 µM (inconclusive); in [18], 7.08 µM (inconclusive). Further, the EC50 in data set [19] was < 0.1 µM (active); in data set [20], 48.8 µM (active); in data set [21], 8.41 µM (active).

Take `COc1cccc(C(=O)N/N=C/c2c[nH]nc2-c2ccc(OC)cc2OC)c1`: the EC50 in data set [2] and in [3] was > 112 µM (not active) in each case.

Consider `CC1(C)CCC(C)(C)c2cc(C(=O)Nc3ccc(C(=O)O)cc3)ccc21`, for which the AC50 in [1] was 31.6 µM (inconclusive); in data set [18] it was 15.8 µM (inconclusive); in [13] (read-out: AC50) it was 31.6 µM (inconclusive).

The record behind these values is ChEMBL document CHEMBL1201862, “PubChem BioAssay data set” (2004).
